Test system: rat âgé
Experiment: Chronic treatment of the aged rat: arterial blood pressure
Format: in vivo
Settings: young rat (3 months per Tableau 1); 0,1 à 1 mg /kg par jour for 2 weeks
Protocol: Etude du traitement chronique du rat âgé
Au cours du vieillissement, une insulino-résistance apparaît, accompagnée d'une hyperinsulinémie et d'une élévation de la pression artérielle (cf tableau 1 ci-après).
A titre d'exemple, le traitement par le gliclazide à la dose de 0,1 à 1 mg /kg par jour pendant 2 semaines, diminue la pression artérielle du rat âgé de 9.10² à 11.10² Pa sans modifier celle du rat jeune.

In the case of Cc1ccc(S(=O)(=O)NC(=O)NN2CC3CCCC3C2)cc1 (stereo not shown) [gliclazide], the “pression artérielle du rat jeune” value is reported as “sans modifier”.
